Laboratory results taken from patent US9745297B2, “Compounds as modulators of RORC” (Boehringer Ingelheim International GmbH, priority 2013, dated 2017).

Molecular target: T1, RORγt (Homo sapiens, UniProt P51449)
T1 construct: expressed in transfected cells
T1 sequence (P51449 269-508 limits assumed): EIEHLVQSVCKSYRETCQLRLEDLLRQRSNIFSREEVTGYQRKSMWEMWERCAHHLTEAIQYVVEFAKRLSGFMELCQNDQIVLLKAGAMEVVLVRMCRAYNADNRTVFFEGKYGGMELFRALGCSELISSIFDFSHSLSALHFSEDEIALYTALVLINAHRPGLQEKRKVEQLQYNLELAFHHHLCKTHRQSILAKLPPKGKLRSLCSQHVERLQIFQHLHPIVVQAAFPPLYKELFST
Experiment: RGA Assay: nuclear receptor transactivation assay, RORγt transactivation of a luciferase reporter
Assay type: cell-based
Settings: transiently transfected HEK 293 cells (pGL4.3 luc2P/GAL4UAS, pBIND Gal4DBD hRORC LBD), 20-24 hours incubation, luciferase readout
Description: A nuclear receptor transactivation assay was performed to quantitate the ability of test compounds to inhibit RORγt transactivation of a luciferase reporter. A similar assay is described in: Khan et al., Bioorganic & Medicinal Chemistry Letters 23 (2013), 532-536. The system uses transiently transfected HEK 293 cells cotransfected with two plasmids (pGL4.3, luc2P/GAL4UAS/Hygro, and pBIND, Ga14DBD hRORC LBD1-3). The positive control is co-transiently transfected with both plasmids, and the negative control contains the pGL4.3 promoter sequence. Assays were assembled in 384 well plates where transiently transfected cells and test compound at varying concentrations were incubated for 20-24 hours. The next day, assays plates are taken out and equillibrated at RT for 20-30 minutes. Bright-Glo™ Luciferase Assay System is used to detect Luciferase production. After addition of Bright GLO detection reagent, the plates were incubated at RT for 20 minutes. The plates were read on an Envision plate reader to measure luminescence signal. The RLU signal is converted to POC relative to control and blank wells.
Compound Dilution Buffer:
Bright Glo Luciferase Assay System: Promega #E2620
Thaw lysis buffer provided in kit, add 100 mL lysis buffer to substrate powder.

Compound	IC50
COc1ncnc(C2CC2)c1-c1ccc2c(n1)C1(CCCC1)CN2C(=O)NCc1ccc(S(C)(=O)=O)cc1 [Example 66]	650 nM
CCS(=O)(=O)c1ccc(CNC(=O)N2CC3(CCCC3)c3nc(-c4c(OC(C)C)ncnc4C4CC4)ccc32)cc1 [Example 67]	830 nM
CCOc1ncnc(C2CC2)c1-c1ccc2c(n1)C1(CCCC1)CN2C(=O)NCc1ccc(S(C)(=O)=O)cc1 [Example 69]	1100 nM
COc1ncnc(C(F)(F)F)c1-c1ccc2c(n1)C1(CCCC1)CN2C(=O)NCc1ccc(S(C)(=O)=O)cc1 [Example 75]	3700 nM
CCS(=O)(=O)N1CCC(CNC(=O)N2CC3(CCCC3)c3nc(-c4c(OC)ncnc4C4CC4)ccc32)CC1 [Example 76]	15000 nM
COc1ncnc(C2CC2)c1-c1ccc2c(n1)C(C)(C)CN2C(=O)NCc1ccc(S(C)(=O)=O)cc1 [Example 77]	4000 nM
CNS(=O)(=O)c1ccc(CNC(=O)N2CC(C)(C)c3nc(-c4c(OC)ncnc4C4CC4)ccc32)cc1 [Example 78]	2400 nM
CCS(=O)(=O)c1ccc(CNC(=O)N2CC3(CCCC3)c3nc(-c4c(C)ncnc4C4CC4)ccc32)cc1 [Example 79]	380 nM
Cc1ncnc(C2CC2)c1-c1ccc2c(n1)C1(CCCC1)CN2C(=O)NCc1ccc(S(C)(=O)=O)cc1 [Example 80]	840 nM
CCS(=O)(=O)c1ccc(CNC(=O)N2CC3(CCCC3)c3nc(-c4cc(CN5CC[C@@H](O)C5)ccc4C4CC4)ccc32)cc1 [Example 82]	7000 nM
CCS(=O)(=O)c1ccc(CNC(=O)N2CC3(CCCC3)c3nc(-c4cc(CN5CC[C@H](O)C5)ccc4C4CC4)ccc32)cc1 [Example 83]	6900 nM
CCS(=O)(=O)c1ccc(CNC(=O)N2CC3(CCCC3)c3nc(-c4cc(CN5CC[C@@H](O)C5)ccc4C)ccc32)cc1 [Example 84]	> 30000 nM
CCS(=O)(=O)c1ccc(CNC(=O)N2CC3(CCCC3)c3nc(-c4cc(CN5CC[C@H](O)C5)ccc4C)ccc32)cc1 [Example 85]	> 30000 nM
CNS(=O)(=O)c1ccc(CNC(=O)N2CC3(CCCC3)c3cc(-c4ccc(F)cc4C)ncc32)cc1 [Example 86]	2600 nM
COc1ccc(-c2cc3c(cn2)N(C(=O)NCc2ccc(S(C)(=O)=O)cc2)CC3(C)C)c(C(F)(F)F)c1 [Example 87]	3900 nM
CC(C)c1ncncc1-c1cc2c(cn1)N(C(=O)NCc1ccc(S(C)(=O)=O)cc1)CC2(C)C [Example 88]	> 30000 nM
Cc1cc(O)ccc1-c1cc2c(cn1)N(C(=O)NCc1ccc(S(C)(=O)=O)cc1)CC2(C)C [Example 91]	> 30000 nM
Cc1cc(C#N)ccc1-c1cc2c(cn1)N(C(=O)NCc1ccc(S(C)(=O)=O)cc1)CC2(C)C [Example 92]	> 30000 nM
CCS(=O)(=O)c1ccc(CNC(=O)N2CC3(CCCC3)c3cc(-c4cnc(OC)nc4C4CC4)ncc32)cc1 [Example 95]	> 30000 nM
CCS(=O)(=O)c1ccc(CNC(=O)N2CC3(CCCC3)c3nc(-c4c(C5CC5)ncnc4C4CC4)ccc32)cc1 [Example 97]	200 nM
CCS(=O)(=O)c1ccc(CNC(=O)N2CC3(CCCC3)c3nc(-c4c(C)ncnc4C(F)(F)F)ccc32)cc1 [Example 99]	360 nM
CCc1ncnc(C2CC2)c1-c1ccc2c(n1)C1(CCCC1)CN2C(=O)NCc1ccc(S(=O)(=O)CC)cc1 [Example 100]	220 nM

Now from value to compound:

IC50	Compound
2500 nM	CC(C)Oc1ncnc(C2CC2)c1-c1ccc2c(n1)C1(CCCC1)CN2C(=O)NCc1ccc(S(C)(=O)=O)cc1 [Example 68]
760 nM	CCOc1ncnc(C2CC2)c1-c1ccc2c(n1)C1(CCCC1)CN2C(=O)NCc1ccc(S(=O)(=O)CC)cc1 [Example 70]
2800 nM	CCC1(C)CN(C(=O)NCc2ccc(S(=O)(=O)CC)cc2)c2ccc(-c3cncnc3C(C)C)nc21 (stereo not drawn) [Example 72]
1500 nM	CCC1(C)CN(C(=O)NCc2ccc(S(=O)(=O)CC)cc2)c2ccc(-c3c(OC)ncnc3C3CC3)nc21 (stereo not drawn) [Example 73]
310 nM	CCS(=O)(=O)c1ccc(CNC(=O)N2CC3(CCCC3)c3nc(-c4c(OC)ncnc4C(F)(F)F)ccc32)cc1 [Example 74]
1500 nM	CCS(=O)(=O)c1ccc(CNC(=O)N2CC(C)(C)c3nc(-c4c(OC)ncnc4C(F)(F)F)ccc32)cc1 [Example 81]
> 30000 nM	Cc1cc(F)ccc1-c1cc2c(cn1)N(C(=O)NCc1ccc(S(C)(=O)=O)cc1)CC2(C)C [Example 89]
> 30000 nM	COc1cc(C)c(-c2cc3c(cn2)N(C(=O)NCc2ccc(S(C)(=O)=O)cc2)CC3(C)C)cn1 [Example 90]
740 nM	CCS(=O)(=O)c1ccc(CNC(=O)N2CC3(CCCC3)c3cc(-c4c(OC)ncnc4C4CC4)ncc32)cc1 [Example 93]
3800 nM	CCS(=O)(=O)c1ccc(CNC(=O)N2CC(C)(C)c3cc(-c4c(OC)ncnc4C4CC4)ncc32)cc1 [Example 94]
> 30000 nM	CCS(=O)(=O)c1ccc(CNC(=O)N2CC3(CCCC3)c3cc(Cl)ncc32)cc1 [Example 96]
370 nM	CCS(=O)(=O)c1ccc(CNC(=O)N2CC3(CCCC3)c3nc(-c4c(C5CC5)ncnc4C4CC4)ccc32)nc1 [Example 98]
420 nM	CCc1ncnc(C2CC2)c1-c1ccc2c(n1)C1(CCCC1)CN2C(=O)NCc1ccc(S(=O)(=O)CC)cn1 [Example 101]
730 nM	CCS(=O)(=O)c1cnc(CNC(=O)N2CC3(CCCC3)c3nc(-c4c(OC)ncnc4C4CC4)ccc32)nc1 [Example 102]
